# Source: patent US20140322296A1, “PIPERAQUINE MICROCAPSULES AND COMPOSITIONS CONTAINING THEM” (Aptalis Pharma S.r.l., priority 2013, published 2014)
# Assay: Compatibility of piperaquine with the coacervation process (heating/cooling thermal cycles)
# Assay type: physicochemical
# Method: 1. Methods for Characterization • Particle size distribution (PSD): an amount of microcapsules in the range of 25-50 g of microcapsules is poured into a 100 mL HDPE bottle, 0.2% (w/w) of Syloid 244 (colloidal silicon dioxide, WR Grace, Columbia, Md.) and manually blended for 2 minutes; the mixture of microcapsules and Syloid 244 is sieved then with a digital Octagon apparatus for 10 minutes at amplitude 7. • Bulk density and tapped density of powders is measured according to Method USP 34 <616>. • Dissolution profile: Ph Eur [2.9.3]; apparatus n^o 2; dissolution medium: gastric simulated fluid pH 1.2 0.5% of Tween 80 without pepsin; dissolution medium volume: 900 mL; • dissolution medium temperature: 37±0.5° C.; withdrawal at: 5, 15, 30, 60 and 120 min. • Water content: Karl Fischer titration: Ph. Eur. 2.5.12 Method; following sample titration conditions are applied: sample solvent: methanol:formamide 1:1; sample weight: 50 mg; the value of water content in a sample is expressed as % w/w. • Residual cyclohexane: gas-chromatography (head space analysis). • Photostability Testing: ICH conditions “Q1B: Photostability (Option 1)”. • X-Ray Powder Diffraction (XRPD) measurements are performed on a Philips X'Pert PRO diffractometer (Bragg-Brentano geometry). • IR identity. A compatibility study is carried out on piperaquine to assess the compatibility of the drug with the coacervation process. In particular, piperaquine undergoes heating/cooling cycles mimicking thermal excursions of the process. Then, the following tests are performed both before and after thermal cycles to ascertain the stability of piperaquine: water content analysis (Karl Fisher test); effect of mechanical stress; crystalline structure by XRPD.
structure (smiles),measurement,setting,value
"Clc1ccc2c(N3CCN(CCCN4CCN(c5ccnc6cc(Cl)ccc56)CC4)CC3)ccnc2c1 [PQP•4H2O, 4,4′-(1,3-propanediyldi-4,1-piperazinediyl)bis(7-chloroquinoline)phosphate hydrate (1:4:4)]",Assay (%) (PQP•4H2O),after thermal cycle,99.9%
same,Water content (%),after thermal cycle,8.5%
same,Assay (%) (PQP•4H2O),before thermal cycle,99.9%
same,Water content (%),before thermal cycle,8.9%
same,Effect of heating/cooling cycle on the drug,thermal excursions mimicking the coacervation process,not affected by heating/cooling cycle
